From patent US9242933B2 (AbbVie Deutschland GmbH & Co. KG, priority 2007, dated 2016)

Molecular target: T1, human mGlu2 receptor (Homo sapiens, UniProt Q14416)
T1 construct: expressed in transfected cells; host or cells: HEK293
Assay: FLIPR intracellular Ca2+ assay, potentiation of glutamate response in HEK293 clone expressing mGlu2 receptor, rGLAST and Galpha16
Type: cell-based
Conditions: 1 μM glutamate added ten minutes after test compound, HEK293 cells with human mGlu2, rGLAST, Galpha16, read-out: EC50 values of potentiation effect to glutamate
From the text: The compounds of the present invention can be tested e.g. by evaluating intracellular Ca^2+ concentrations in cells permanently expressing human mGlu receptor, the rat glutamate transporter rGLAST and the Galpha16 subunit of the G-protein complex under standard conditions in a fluorometric imaging plate reader (FLIPR, Molecular Devices, Union City, Calif. 94587, USA) by measuring the response of the cells to a test compound in the absence of presence of glutamate. The FLIPR assay is a common functional assay to monitor native or recombinant Galphaq-coupled receptors, and native or recombinant receptors normally linked to other G-protein signalling cascades, which are coupled to calcium through co-expression of an alpha subunit of a promiscuous or chimeric G-protein. In the assay the increase of intracellular calcium is measured through a calcium-dependent fluorescent dye (e.g. Fluo-4 AM) in the FLIPR instrument.
For the purpose of the present study, a cell line permanently expressing a human mGlu receptor, such as the mGlu2 receptor, the rat glutamate transporter rGLAST and the GalphaG16 may be generated by transfection as described in the examples. For selection of a suitable cell clone and also the subsequent measurements, the selected clone the cells will be plated on suitable multiwell plates in a suitable medium (e.g. DMEM Glutamax (GIBCO #21885-025)/10% dialyzed FCS). Cells may be selected by gentamycin treatment as described in the examples. Cells will then be loaded with a suitable Ca^2+ sensitive fluorescence dye, e.g. with 2 μM Fluo-4 AM (Molecular Probes, F14201). Cells will then be washed with a suitable buffer (e.g. HEPES) and the thus treated plates will be measured in a fluorometric imaging plate reader (e.g. FLIPR, Molecular Devices, Union City, Calif. 94587, USA).
The compounds of the present invention were tested in the above-described FLIPR assay using the selected cell clone. Increased intracellular calcium levels were quantified following addition of test compound (agonism), as well as following addition of a submaximal concentration of glutamate (potentiation).
For the determination of the effect of the test compound by itself (agonism) or by increasing the response to a submaximal concentration (e.g. 1 μM) of glutamate (potentiation), the resulting signal is determined by subtraction of the background fluorescence from the maximal fluorescent peak height of the respective response. In the FLIPR instrument the compound is given to the cell and its fluorescence response quantified by the FLIPR instrument (agonism). The concentration at which the compound exerts half its maximal effect is named the ‘effective concentration 50’ or ‘EC50’. The maximal effect induced by the test substance is normalized to the maximal effect exerted by 100 μM glutamate (set at 100%).
After addition of the test compound to the plate, a submaximal concentration of glutamate (e.g. 1 μM glutamate) will be added. A potentiator enhances the response of the receptor to glutamate. The response to glutamate in the presence of test compound is quantified. The concentration at which the test compound is able to exert half its maximal potentiation effect to glutamate is named the ‘EC50’. The maximal response to the submaximal concentration of glutamate (e.g. 1 micromolar glutamate) in the presence of test compound is normalized to the maximal effect exerted by 100 micromolar glutamate (set at 100%). Least squares curve fitting with a four-parameter equation is then applied to the resulting dose-response curve to determine the resulting EC5O values (Graph Pad Prism).
For the purpose of the present study, a cell line permanently expressing the human mGlu2 receptor, the rat glutamate transporter rGLAST and the alpha subunit of G16 was generated by transfection. […]

T1 sequence (Q14416 19-872): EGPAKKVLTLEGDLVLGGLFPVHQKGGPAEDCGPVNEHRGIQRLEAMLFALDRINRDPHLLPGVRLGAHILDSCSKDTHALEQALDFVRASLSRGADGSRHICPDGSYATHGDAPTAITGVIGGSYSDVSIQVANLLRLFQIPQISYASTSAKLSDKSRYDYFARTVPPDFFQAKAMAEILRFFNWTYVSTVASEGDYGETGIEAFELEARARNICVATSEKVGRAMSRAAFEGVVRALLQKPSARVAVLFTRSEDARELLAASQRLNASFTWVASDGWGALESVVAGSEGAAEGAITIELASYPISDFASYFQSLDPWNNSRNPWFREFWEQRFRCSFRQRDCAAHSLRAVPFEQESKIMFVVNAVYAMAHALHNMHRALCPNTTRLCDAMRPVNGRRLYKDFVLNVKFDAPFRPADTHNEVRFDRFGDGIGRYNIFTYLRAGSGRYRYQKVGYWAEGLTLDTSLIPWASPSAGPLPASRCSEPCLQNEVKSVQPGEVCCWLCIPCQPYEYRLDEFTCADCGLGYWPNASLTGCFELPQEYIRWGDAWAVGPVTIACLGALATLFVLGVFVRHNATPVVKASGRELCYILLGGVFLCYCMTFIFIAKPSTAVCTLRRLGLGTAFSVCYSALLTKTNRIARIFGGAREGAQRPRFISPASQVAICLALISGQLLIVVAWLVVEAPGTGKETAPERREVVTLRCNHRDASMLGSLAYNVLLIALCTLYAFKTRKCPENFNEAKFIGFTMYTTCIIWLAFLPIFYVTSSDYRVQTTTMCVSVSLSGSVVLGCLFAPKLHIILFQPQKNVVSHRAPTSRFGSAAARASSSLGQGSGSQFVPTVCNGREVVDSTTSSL

| Compound | EC50 |
| --- | --- |
| FC(F)(F)c1ccc(-c2n[nH]cc2CNc2ccc(Cl)cn2)cc1 [Example 340, (5-Chloro-pyridin-2-yl)-[3-(4-trifluoromethyl-phenyl)-1H-pyrazol-4-ylmethyl]-amine] | 1 to 10 µM |
| Cc1cc(C)nc(NCc2c[nH]nc2-c2ccc(C(F)(F)F)cc2)c1 [Example 341, (4,6-Dimethyl-pyridin-2-yl)-[3-(4-trifluoromethyl-phenyl)-1H-pyrazol-4-ylmethyl]-amine] | 1 to 10 µM |
| FC(F)(F)c1ccc(-c2n[nH]cc2CNc2cccc(Cl)n2)cc1 [Example 349, (6-Chloro-pyridin-2-yl)-[3-(4-trifluoromethyl-phenyl)-1H-pyrazol-4-ylmethyl]-amine] | 1 to 10 µM |
| COc1ccc(NCc2c[nH]nc2-c2ccc(C(F)(F)F)cc2)c(OC)n1 [Example 351, (2,6-Dimethoxy-pyridin-3-yl)-[3-(4-trifluoromethyl-phenyl)-1H-pyrazol-4-ylmethyl]-amine] | 1 to 10 µM |
| CC(=O)c1sccc1NCc1c[nH]nc1-c1ccc(C(F)(F)F)cc1 [Example 355, 1-(3-{[3-(4-Trifluoromethyl-phenyl)-1H-pyrazol-4-ylmethyl]-amino}-thiophen-2-yl)-ethanone] | 1 to 10 µM |
| Cc1ccc(NCc2c[nH]nc2-c2ccc(C(F)(F)F)cc2)nc1C [Example 363, (5,6-Dimethyl-pyridin-2-yl)-[3-(4-trifluoromethyl-phenyl)-1H-pyrazol-4-ylmethyl]-amine] | 1 to 10 µM |
| CCCC(=O)c1ccc(NCc2cn(C)nc2-c2ccc(C(F)(F)F)cc2)cc1 [Example 374, 1-(4-{[1-Methyl-3-(4-trifluoromethyl-phenyl)-1H-pyrazol-4-ylmethyl]-amino}-phenyl)-butan-1-one] | < 1 µM |
| CCCC(=O)c1ccc(NCc2cnn(C)c2-c2ccc(C(F)(F)F)cc2)cc1 [Example 375, 1-(4-{[1-Methyl-5-(4-trifluoromethyl-phenyl)-1H-pyrazol-4-ylmethyl]-amino}-phenyl)-butan-1-one] | < 1 µM |
| CCC(C)Oc1cccc(NCc2c[nH]nc2-c2ccc(C(F)(F)F)cc2)c1 (stereo not drawn) [Example 378, (3-sec-Butoxy-phenyl)-[3-(4-trifluoromethyl-phenyl)-1H-pyrazol-4-ylmethyl]-amine] | 1 to 10 µM |
| CCCC(C)Oc1cccc(NCc2c[nH]nc2-c2ccc(C(F)(F)F)cc2)c1 (stereo not drawn) [Example 379, [3-(1-Methyl-butoxy)-phenyl]-[3-(4-trifluoromethyl-phenyl)-1H-pyrazol-4-ylmethyl]-amine] | 1 to 10 µM |
| CCC(CC)Oc1cccc(NCc2c[nH]nc2-c2ccc(C(F)(F)F)cc2)c1 [Example 380, [3-(1-Ethyl-propoxy)-phenyl]-[3-(4-trifluoromethyl-phenyl)-1H-pyrazol-4-ylmethyl]-amine] | 1 to 10 µM |
| CCCC(=O)c1ccc(N(Cc2cccnc2)S(=O)(=O)CC(F)(F)F)cc1 [Example 383, 2,2,2-Trifluoro-ethanesulfonic acid (4-butyryl-phenyl)-pyridin-3-ylmethyl-amide] | 1 to 10 µM |
| CN(C)c1ccc(N(Cc2cccnc2)S(=O)(=O)CC(F)(F)F)cc1 [Example 385, 2,2,2-Trifluoro-ethanesulfonic acid (4-dimethylamino-phenyl)-pyridin-3-ylmethyl-amide] | 1 to 10 µM |
| CCCC(=O)c1cccc(NCc2cccnc2)c1 [Example 386, 1-{3-[(Pyridin-3-ylmethyl)-amino]-phenyl}-butan-1-one] | 1 to 10 µM |
| CCCC(=O)c1ccc(NCc2ccc(N(C)C)nc2)cc1 [Example 387, 1-{4-[(6-Dimethylamino-pyridin-3-ylmethyl)-amino]-phenyl}-butan-1-one] | 1 to 10 µM |
| CN(C)c1cccc(N(Cc2cccnc2)S(=O)(=O)CC(F)(F)F)c1 [Example 389, 2,2,2-Trifluoro-ethanesulfonic acid (3-dimethylamino-phenyl)-pyridin-3-ylmethyl-amide] | 1 to 10 µM |
| CCCC(=O)c1cccc(N(Cc2cccnc2)S(=O)(=O)CC(F)(F)F)c1 [Example 390, 2,2,2-Trifluoro-ethanesulfonic acid (3-butyryl-phenyl)-pyridin-3-ylmethyl-amide] | < 1 µM |
| CCCC(=O)c1ccc(OCCCCOc2cccnc2)cc1 [Example 423, 1-{4-[4-(Pyridin-3-yloxy)-butoxy]-phenyl}-butan-1-one] | 1 to 10 µM |

Second part, the compound after the results:

| EC50 | Compound |
| --- | --- |
| 1 to 10 µM | CCCC(=O)c1ccc(N(Cc2ccc(N(C)C)nc2)S(=O)(=O)CC(F)(F)F)cc1 [Example 391, 2,2,2-Trifluoro-ethanesulfonic acid (4-butyryl-phenyl)-(6-dimethylamino-pyridin-3-ylmethyl)-amide] |
| 1 to 10 µM | CCCC(=O)c1cccc(N(C)Cc2c[nH]nc2-c2ccc(C(F)(F)F)cc2)c1 [Example 392, 1-(3-{Methyl-[3-(4-trifluoromethyl-phenyl)-1H-pyrazol-4-ylmethyl]-amino}-phenyl)-butan-1-one] |
| 1 to 10 µM | CS(=O)(=O)c1ccc(NCc2c[nH]nc2-c2ccc(C(F)(F)F)cc2)cc1 [Example 399, (4-Methanesulfonyl-phenyl)-[3-(4-trifluoromethyl-phenyl)-1H-pyrazol-4-ylmethyl]-amine] |
| 1 to 10 µM | Cc1cc(=O)c2ccc(NCc3c[nH]nc3-c3ccc(C(F)(F)F)cc3)cc2o1 [Example 400, 2-Methyl-7-{[3-(4-trifluoromethyl-phenyl)-1H-pyrazol-4-ylmethyl]-amino}-chromen-4-one] |
| 1 to 10 µM | CCCC(=O)c1ccc(NCc2c[nH]nc2-c2cccc(C(F)(F)F)c2)cc1 [Example 416, 1-(4-{[3-(3-Trifluoromethyl-phenyl)-1H-pyrazol-4-ylmethyl]-amino}-phenyl)-butan-1-one] |
| 1 to 10 µM | CN(C)S(=O)(=O)c1cccc(NCc2c[nH]nc2-c2ccc(Cl)cc2)c1 [Example 430, 3-{[3-(4-Chloro-phenyl)-1H-pyrazol-4-ylmethyl]-amino}-N,N-dimethyl-benzenesulfonamide] |
| 1 to 10 µM | CN(C)C(=O)c1ccc(NCc2c[nH]nc2-c2cccc(C(F)(F)F)c2)cc1 [Example 433, N,N-Dimethyl-4-{[3-(3-trifluoromethyl-phenyl)-1H-pyrazol-4-ylmethyl]-amino}-benzamide] |
| < 1 µM | CCCC(=O)c1ccc(NCc2c[nH]nc2-c2cccc(C(F)(F)F)c2)cc1OC [Example 434, 1-(2-Methoxy-4-{[3-(3-trifluoromethyl-phenyl)-1H-pyrazol-4-ylmethyl]-amino}-phenyl)-butan-1-one] |
| 1 to 10 µM | CCCc1c(NCc2c[nH]nc2-c2cccc(C(F)(F)F)c2)ccc(C(C)=O)c1O [Example 436, 1-(2-Hydroxy-3-propyl-4-{[3-(3-trifluoromethyl-phenyl)-1H-pyrazol-4-ylmethyl]-amino}-phenyl)-ethanone] |
| 1 to 10 µM | CCCC(=O)c1ccc(NCc2c[nH]nc2-c2ccc(Cl)cc2)cc1OC(CC)CC [Example 437, 1-[4-{[3-(4-Chloro-phenyl)-1H-pyrazol-4-ylmethyl]-amino}-2-(1-ethyl-propoxy)-phenyl]-butan-1-one] |
| < 1 µM | CC(=O)c1ccc(NCc2c[nH]nc2-c2ccc(Cl)cc2)c(C)c1O [Example 440, 1-(4-{[3-(4-Chloro-phenyl)-1H-pyrazol-4-ylmethyl]-amino}-2-hydroxy-3-methyl-phenyl)-ethanone] |
| < 1 µM | O=C(c1ccc(OCc2c[nH]nc2-c2cccc(C(F)(F)F)c2)cc1)C1CCCC1 [Example 442, Cyclopentyl-{4-[3-(3-trifluoromethyl-phenyl)-1H-pyrazol-4-ylmethoxy]-phenyl}-methanone] |
